SMILES strings stand for the structures.

Data set [1] concerns isolated mouse liver mitochondria. Nature of the data set: Loss of mitochondrial transmembrane potential. As to conditions: for ΔΨm loss EC20: 20% of maximal loss of ΔΨm (50µM mClCCP = 100%), 30-min incubation. In kind it is biochemical.
For data set [2], the system named is isolated mouse liver mitochondria, complex I. Nature of the data set: Oxygen consumption through complex I. The following applies: inhibition of oxygen consumption, malate + glutamate + ADP; 2µM rotenone = 100%.

Regarding `CC(=O)Nc1ccc(O)cc1` [Acetaminophen], in data set [1], the “ΔΨm loss EC20” value is listed as more than 200 µM. In addition, the “O2 cons CI EC20” value in data set [2] is given as more than 400 µM. The corresponding values for `CC(=O)Oc1ccccc1C(=O)O` [Acetylsalicylic acid] are 335.5 µM and 149.8 µM.

For the compound `CCCN(CCC)C(=O)Cc1c(-c2ccc(Cl)cc2)nc2ccc(Cl)cn12` [Alpidem], the “ΔΨm loss EC20” value in data set [1] was found to be 83.7 µM. Besides, in data set [2], the “O2 cons CI EC20” value is on record as 29.6 µM. The corresponding values for `NC12CC3CC(CC(C3)C1)C2` [Amantadine] are 261.2 µM and more than 400 µM. With `Nc1c(Br)cc(Br)cc1CN[C@H]1CC[C@H](O)CC1` [Ambroxol], in data set [1], the “ΔΨm loss EC20” value is more than 200 µM. The “O2 cons CI EC20” value in data set [2] is given as more than 200 µM. With `CCCCc1oc2ccccc2c1C(=O)c1cc(I)c(OCCN(CC)CC)c(I)c1` [Amiodarone], the “ΔΨm loss EC20” value in data set [1] was 2.6 µM. Turning to `CC1(C)S[C@@H]2[C@H](NC(=O)[C@H](N)c3ccc(O)cc3)C(=O)N2[C@H]1C(=O)O` [Amoxicillin], the “ΔΨm loss EC20” value in data set [1] was more than 400 µM. Still for that read-out and setting: as for `CC1(C)S[C@@H]2[C@H](NC(=O)[C@H](N)c3ccccc3)C(=O)N2[C@H]1C(=O)O` [Ampicillin], the figure is more than 400 µM.

Turning to `Cc1cc(=O)n(-c2ccccc2)n1C` [Antipyrine], in data set [1], the “ΔΨm loss EC20” value came out at 300.0 µM. Further, the “O2 cons CI EC20” value in data set [2] was more than 400 µM. For `CC(C)c1c(C(=O)Nc2ccccc2)c(-c2ccccc2)c(-c2ccc(F)cc2)n1CC[C@@H](O)C[C@@H](O)CC(=O)O` [Atorvastatin], the “ΔΨm loss EC20” value in data set [1] turned out to be 4.3 µM. For the compound `O=C(O)CCCC[C@@H]1SC[C@@H]2NC(=O)N[C@@H]21` [Biotin], the “ΔΨm loss EC20” value in data set [1] is given as more than 400 µM. Also, in data set [2], the “O2 cons CI EC20” value is reported as more than 400 µM. Take `CS(=O)(=O)OCCCCOS(C)(=O)=O` [Busulfan]: the “ΔΨm loss EC20” value in data set [1] was 483.1 µM.

`O=C(/C=C/c1ccc(O)c(O)c1)c1ccc(O)cc1O` [Butein]: the “ΔΨm loss EC20” value in data set [1] was more than 200 µM. `O=C(O)c1cn(C2CC2)c2cc(N3CCNCC3)c(F)cc2c1=O` [Ciprofloxacin]: the “ΔΨm loss EC20” value in data set [1] is more than 400 µM. The same measure, in the same setting: for `Clc1ccccc1C(c1ccccc1)(c1ccccc1)n1ccnc1` [Clotrimazole] the value was 23.9 µM; for `O=c1ccc2ccccc2o1` [Coumarin], 0.9 µM. Still for that read-out and setting: as for `Cc1nc(Nc2ncc(C(=O)Nc3c(C)cccc3Cl)s2)cc(N2CCN(CCO)CC2)n1` [Dasatinib], the figure is 20.8 µM.

For the compound `COc1cccc2c1C(=O)c1c(O)c3c(c(O)c1C2=O)C[C@@](O)(C(C)=O)C[C@@H]3O[C@H]1C[C@H](N)[C@H](O)[C@H](C)O1` [Daunorubicin], the “O2 cons CI EC20” value in data set [2] turned out to be 10.9 µM. `CC1=NS(=O)(=O)c2cc(Cl)ccc2N1` [Diazoxide]: the “ΔΨm loss EC20” value in data set [1] is more than 200 µM. On the same count and under the same terms, for `O=C(O)c1cc(-c2ccc(F)cc2F)ccc1O` [Diflunisal] the value was 17.9 µM.

In the case of `CCN(CC)C(=S)SSC(=S)N(CC)CC` [Disulfiram], in data set [1], the “ΔΨm loss EC20” value was 12.6 µM. For `COc1cccc2c1C(=O)c1c(O)c3c(c(O)c1C2=O)C[C@@](O)(C(=O)CO)C[C@@H]3O[C@H]1C[C@H](N)[C@H](O)[C@H](C)O1` [Doxorubicin], the “ΔΨm loss EC20” value in data set [1] was 8.9 µM.

Take `Clc1ccc(COC(Cn2ccnc2)c2ccc(Cl)cc2Cl)cc1` (stereo not drawn) [Econazole]: the “ΔΨm loss EC20” value in data set [1] is 13.3 µM. Turning to `O=C(O)c1ccccc1Nc1cccc(C(F)(F)F)c1` [Flufenamic acid], the “ΔΨm loss EC20” value in data set [1] is reported as 42.5 µM. The same measure, in the same setting: for `CC(C)C(=O)Nc1ccc([N+](=O)[O-])c(C(F)(F)F)c1` [Flutamide] the value was 27.0 µM; for `COc1cc2ncnc(Nc3ccc(F)c(Cl)c3)c2cc1OCCCN1CCOCC1` [Gefitinib], 9.6 µM. Still for that read-out and setting: for `O=c1c(-c2ccc(O)cc2)coc2cc(O)cc(O)c12` [Genistein] the value was 150.6 µM; for `CNC(C)C1CCC(N)C(OC2C(N)CC(N)C(OC3OCC(C)(O)C(NC)C3O)C2O)O1` (stereo not drawn) [Gentamicin], 49.0 µM.

On to `CCC1=C(C)CN(C(=O)NCCc2ccc(S(=O)(=O)NC(=O)N[C@H]3CC[C@H](C)CC3)cc2)C1=O` [Glimepiride], for which, in data set [1], the “ΔΨm loss EC20” value came out at 94.6 µM. On to `Cc1cc2c(C(C)C)c(O)c(O)c(C=O)c2c(O)c1-c1c(C)cc2c(C(C)C)c(O)c(O)c(C=O)c2c1O` [Gossypol], for which, in data set [1], the “ΔΨm loss EC20” value was found to be 1.0 µM. Regarding `CC(C)=CCC[C@]1(C)[C@@H](CC=C(C)C)C[C@@]2(CC=C(C)C)C(=O)[C@]1(C(=O)C(C)C)C(=O)C(CC=C(C)C)=C2O` [Hyperforin], the “ΔΨm loss EC20” value in data set [1] amounted to 0.1 µM. Regarding `Cc1ccc(NC(=O)c2ccc(CN3CCN(C)CC3)cc2)cc1Nc1nccc(-c2cccnc2)n1` [Imatinib], the “ΔΨm loss EC20” value in data set [1] is 25.7 µM. Same read-out and setting: as for `CN(C)CCCN1c2ccccc2CCc2ccccc21` [Imipramine], the figure is 74.8 µM. `COc1ccc2c(c1)c(CC(=O)O)c(C)n2C(=O)c1ccc(Cl)cc1` [Indomethacin]: the “ΔΨm loss EC20” value in data set [1] is recorded as 443.2 µM. Take `NNC(=O)c1ccncc1` [Isoniazide]: in data set [1], the “ΔΨm loss EC20” value was found to be 504.6 µM. The same measure, in the same setting: as for `O=C(O)c1nn(Cc2ccc(Cl)cc2Cl)c2ccccc12` [Lonidamine], the figure is 138.1 µM; as for `Cc1cccc(Nc2ccccc2C(=O)O)c1C` [Mefenamic acid], 49.7 µM; as for `Sc1ncnc2nc[nH]c12` [Mercaptopurine], 406.9 µM.

Regarding `CO[C@@]12[C@H](COC(N)=O)C3=C(C(=O)C(C)=C(N)C3=O)N1C[C@@H]1N[C@@H]12` [Mitomycin C], the “ΔΨm loss EC20” value in data set [1] was more than 200 µM.

As for `O=C1c2c(O)ccc(O)c2C(=O)c2c(NCCNCCO)ccc(NCCNCCO)c21` [Mitoxantrone], the “ΔΨm loss EC20” value in data set [1] was 7.00 µM.

On to `Cc1c(O)cccc1C(=O)N[C@@H](CSc1ccccc1)[C@H](O)CN1C[C@H]2CCCC[C@H]2C[C@H]1C(=O)NC(C)(C)C` [Nelfinavir], for which, in data set [1], the “ΔΨm loss EC20” value is 6.3 µM; the “concentrations collapsing the ΔΨm and altering the mitochondrial respiration” value is “lower than 50 μM”. With `CO[C@]12C[C@@H](COC(=O)c3cncc(Br)c3)CN(C)[C@@H]1Cc1cn(C)c3cccc2c13` [Nicergoline], the “ΔΨm loss EC20” value in data set [1] was determined as 82.6 µM. Regarding `Cc1cn(-c2cc(NC(=O)c3ccc(C)c(Nc4nccc(-c5cccnc5)n4)c3)cc(C(F)(F)F)c2)cn1` [Nilotinib], the “ΔΨm loss EC20” value in data set [1] is reported as 11.5 µM. Still for that read-out and setting: as for `CS(=O)(=O)Nc1ccc([N+](=O)[O-])cc1Oc1ccccc1` [Nimesulide], the figure is 10.1 µM; as for `CCCCC1C(=O)N(c2ccccc2)N(c2ccccc2)C1=O` [Phenylbutazone], 140.2 µM; as for `CC[C@H](C)C(=O)O[C@H]1C[C@H](O)C=C2C=C[C@H](C)[C@H](CC[C@@H](O)C[C@@H](O)CC(=O)O)[C@H]21` [Pravastatin], more than 200 µM. On the same count and under the same terms, for `CCCc1cc(=O)[nH]c(=S)[nH]1` [Propylthiouracil] the value was 391.5 µM; for `Oc1ccc(/C=C/c2cc(O)cc(O)c2)cc1` [Resveratrol], 395.4 µM. As to `Cc1cc2nc3c(=O)[nH]c(=O)nc-3n(C[C@H](O)[C@H](O)[C@H](O)CO)c2cc1C` [Riboflavin], the “O2 cons CI EC20” value in data set [2] is on record as 182.8 µM. For `CO[C@H]1/C=C/O[C@@]2(C)Oc3c(C)c(O)c4c(O)c(c(/C=N/N5CCN(C)CC5)c(O)c4c3C2=O)NC(=O)/C(C)=C\C=C\[C@H](C)[C@H](O)[C@@H](C)[C@@H](O)[C@@H](C)[C@H](OC(C)=O)[C@@H]1C` [Rifampicin], the “ΔΨm loss EC20” value in data set [1] is reported as more than 800 µM. Regarding `CC(C)c1nc(CN(C)C(=O)N[C@H](C(=O)N[C@@H](Cc2ccccc2)C[C@H](O)[C@H](Cc2ccccc2)NC(=O)OCc2cncs2)C(C)C)cs1` [Ritonavir], in data set [1], the “ΔΨm loss EC20” value came to 24.8 µM; the “concentrations collapsing the ΔΨm and altering the mitochondrial respiration” value is on record as “lower than 50 μM”. Regarding `CC[C@H]1OC(=O)[C@H](C)[C@@H](O[C@H]2C[C@@](C)(OC)[C@@H](O)[C@H](C)O2)[C@H](C)[C@@H](O[C@@H]2O[C@H](C)C[C@H](N(C)C)[C@H]2O)[C@](C)(O)C[C@@H](C)/C(=N\OCOCCOC)[C@H](C)[C@@H](O)[C@]1(C)O` [Roxithromycin], the “ΔΨm loss EC20” value in data set [1] was determined as 244.8 µM. As for `CNC(=O)c1cc(Oc2ccc(NC(=O)Nc3ccc(Cl)c(C(F)(F)F)c3)cc2)ccn1` [Sorafenib], in data set [1], the “ΔΨm loss EC20” value amounted to 0.5 µM. Still for that read-out and setting: for `[H]/N=C(/N)N[C@H]1[C@H](O)[C@@H](O)[C@H](O[C@@H]2O[C@@H](C)[C@](O)(C=O)[C@H]2O[C@@H]2O[C@@H](CO)[C@H](O)[C@@H](O)[C@@H]2NC)[C@@H](N/C(N)=N\[H])[C@@H]1O` [Streptomycin] the value was 78.8 µM; for `CCN(CC)CCNC(=O)c1c(C)[nH]c(/C=C2\C(=O)Nc3ccc(F)cc32)c1C` [Sunitinib], 23.2 µM; for `CC/C(=C(\c1ccccc1)c1ccc(OCCN(C)C)cc1)c1ccccc1` [Tamoxifen], 2.9 µM.

Turning to `CN(C/C=C/C#CC(C)(C)C)Cc1cccc2ccccc12` [Terbinafine], the “ΔΨm loss EC20” value in data set [1] amounted to 12.5 µM. Consider `Clc1ccccc1CN1CCc2sccc2C1` [Ticlopidine], for which the “ΔΨm loss EC20” value in data set [1] came out at 50.5 µM. Still for that read-out and setting: as for `Cc1ccc(C(=O)c2cc(O)c(O)c([N+](=O)[O-])c2)cc1` [Tolcapone], the figure is 3.9 µM; as for `Cc1c(Cl)cccc1Nc1ccccc1C(=O)O` [Tolfenamic acid], 7.1 µM; as for `COc1cccc(C2(O)CCCCC2CN(C)C)c1` (stereo not drawn) [Tramadol], 263.8 µM. On the same count and under the same terms, as for `CC[C@]1(O)C[C@@H]2CN(CCc3c([nH]c4ccccc34)[C@@](C(=O)OC)(c3cc4c(cc3OC)N(C)[C@H]3[C@@](O)(C(=O)OC)[C@H](OC(C)=O)[C@]5(CC)C=CCN6CC[C@]43[C@@H]65)C2)C1` [Vinblastine], the figure is 25.7 µM; as for `CCOC(=O)CN[C@@H](C(=O)N1CC[C@H]1C(=O)NCc1ccc(/C(N)=N\O)cc1)C1CCCCC1` [Ximelagatran], 535.7 µM.

Source of the values: PMC3446843 (Toxicological Sciences, 2012).
